Measurements reported in patent publication US20040058880A1, “Aminoglycoside antibiotics as novel anti-infective agents” (priority 2002, published 2004).
In brackets after ≈: the same amount, converted by molar mass.

Columns and labels:
Assay in all cases: In vitro antibacterial MIC, 96-well broth assay
P. aeruginosa ATCC 27853 = format: cell-based, Pseudomonas aeruginosa; conditions: growth by A595 after 24 h, 10^5-10^6 CFU/well; for MIC: Pseudomonas aeruginosa, ATCC27853
Procedure: (§1) In Vitro Antibacterial Activity Determination of Minimum Inhibitory Concentrations (MICs).
(§2) The assays are carried out in 96-well flat-bottom plates. The bacterial suspension from an overnight culture grown in appropriate medium is added to a solution of test compound in water. Final bacterial inoculums are approximately 10^5-10^6 CFU/well. The percent growth of bacteria in test wells relative to that observed for a well containing no compound is determined by measuring absorbance at 595 nm (A595) after 24 h. The MIC (μg/mL) is determined as a range of single compound where the complete inhibition of growth is observed at the higher concentration and cells are viable at the lower concentrations. Tobramycin is used as an antibiotic-positive control in each screening assay for Pseudomonas aeruginosa, Acinetobacter species, Streptococci viridans, Proteus species, Hemophilus influenzae, Citrobacter species, Serratia marcescens, Staphylococcus aureus, Streptococcus pyogenes, Escherichia coli, Enterobacter species, Enterococcus faecalis, Enterococcus faecium Klebsiella pneumoniae and Providencia stuartii.

P. aeruginosa ATCC 35151 = format: cell-based, Pseudomonas aeruginosa; conditions: growth by A595 after 24 h, 10^5-10^6 CFU/well; for MIC: Pseudomonas aeruginosa, ATCC35151
Procedure: as §1, §2

P. aeruginosa PAO-1 = format: cell-based, Pseudomonas aeruginosa; conditions: growth by A595 after 24 h, 10^5-10^6 CFU/well; for MIC: Pseudomonas aeruginosa, PAO1
Procedure: as §1, §2

E. faecalis ATCC 29212 = format: cell-based, Enterococcus faecalis; conditions: growth by A595 after 24 h, 10^5-10^6 CFU/well; for MIC: Enterococcus faecalis, ATCC29212
Procedure: as §1, §2

[1] = test system: S. aureus ATCC 29213 (MSSA); format: cell-based, Staphylococcus aureus; conditions: growth by A595 after 24 h, 10^5-10^6 CFU/well; for MIC: Staphylococcus aureus
Procedure: as §1, §2

[2] = test system: S. aureus ATCC 33591 (MRSA); format: cell-based, Staphylococcus aureus; conditions: growth by A595 after 24 h, 10^5-10^6 CFU/well; for MIC: Staphylococcus aureus
Procedure: as §1, §2

E. coli ATCC 25922 = format: cell-based, Escherichia coli; conditions: growth by A595 after 24 h, 10^5-10^6 CFU/well; for MIC: Escherichia coli, ATCC25922
Procedure: as §1, §2

Row | Compound | MIC P. aeruginosa ATCC 27853 (P. aeruginosa ATCC 27853) | MIC P. aeruginosa ATCC 35151 (P. aeruginosa ATCC 35151) | MIC P. aeruginosa PAO-1 (P. aeruginosa PAO-1) | MIC E. faecalis ATCC 29212 (E. faecalis ATCC 29212) | MIC S. aureus ATCC 29213 (MSSA) [1] | MIC S. aureus ATCC 33591 (MRSA) [2] | MIC E. coli ATCC 25922 (E. coli ATCC 25922) | MIC (P. aeruginosa ATCC 27853) | MIC (P. aeruginosa ATCC 35151) | MIC (P. aeruginosa PAO-1) | MIC (E. faecalis ATCC 29212) | MIC [1] | MIC [2] | MIC (E. coli ATCC 25922)
1 | 4-(2,6-diamino-2,3,6-dideoxy-α-D-glucopyranosyl)-6-(4-amino-4-deoxy-1-α-D-glucopyranosyl)-2-deoxystreptamine [Compound 3b] | 16 µg/mL | 16 µg/mL | 8 µg/mL | >64 µg/mL | 32 µg/mL | >64 µg/mL | 32 µg/mL | – | – | – | – | – | – | –
2 | NC[C@H]1O[C@H](O[C@H]2[C@H](O)[C@@H](O[C@H]3O[C@H](CO)[C@@H](O)[C@H](O)[C@H]3N)[C@H](N)C[C@@H]2N)[C@H](N)C[C@@H]1O [Compound 3a, 4-(2,6-diamino-2,3,6-dideoxy-α-D-glucopyranosyl)-6-(2-amino-2-deoxy-1-α-D-glucopyranosyl)-2-deoxystreptamine] | – | – | – | – | – | – | – | 1 µg/mL (≈ 2.14 µM) | 1 µg/mL (≈ 2.14 µM) | 0.5 µg/mL (≈ 1.07 µM) | 16 µg/mL (≈ 34.2 µM) | 1 µg/mL (≈ 2.14 µM) | > 64 µg/mL | 2 µg/mL (≈ 4.28 µM)
3 | NC[C@H]1O[C@H](O[C@H]2[C@H](O)[C@@H](OCCCNCCCCNCCCO[C@@H]3[C@@H](O)[C@H](O[C@H]4O[C@H](CN)[C@@H](O)C[C@H]4N)[C@@H](N)C[C@H]3N)[C@H](N)C[C@@H]2N)[C@H](N)C[C@@H]1O [Compound 18a] | – | – | – | – | – | – | – | 16 µg/mL (≈ 20.5 µM) | 32 µg/mL (≈ 41 µM) | 8 µg/mL (≈ 10.2 µM) | > 64 µg/mL | 4 µg/mL (≈ 5.12 µM) | 32 µg/mL (≈ 41 µM) | 16 µg/mL (≈ 20.5 µM)
4 | N=C(N)NC[C@H]1O[C@H](O[C@H]2[C@H](O)[C@@H](O[C@H]3O[C@H](CO)[C@@H](O)[C@H](O)[C@H]3N)[C@H](N)C[C@@H]2N)[C@H](N)C[C@@H]1O [Compound 4a, 4-(2-amino-6-guanidinyl-2,3,6-dideoxy-α-D-glucopyranosyl)-6-(2-amino-2-deoxy-1-α-D-glucopyranosyl)-2-deoxystreptamine] | – | – | – | – | – | – | – | > 64 µg/mL | > 64 µg/mL | 64 µg/mL (≈ 126 µM) | > 64 µg/mL | 64 µg/mL (≈ 126 µM) | > 64 µg/mL | 64 µg/mL (≈ 126 µM)
5 | NCCCCNCCCO[C@@H]1[C@@H](O)[C@H](O[C@H]2O[C@H](CN)[C@@H](O)C[C@H]2N)[C@@H](N)C[C@H]1N [Compound 19a] | – | – | – | – | – | – | – | > 32 µg/mL | > 32 µg/mL | > 32 µg/mL | > 32 µg/mL | > 32 µg/mL | > 32 µg/mL | > 32 µg/mL
6 | 4-(2,6-diamino-2,3,6-dideoxy-α-D-glucopyranosyl)-6-(2-amino-2-deoxy-4-amino-4-deoxy-α-D-glucopyranosyl)-2-deoxystreptamine [Compound 3c] | 2 µg/mL | 1 µg/mL | 1 µg/mL | 32 µg/mL | 1 µg/mL | >64 µg/mL | 2 µg/mL | – | – | – | – | – | – | –
7 | NCC1OC(OC2C(N)CC(N)C(OC3OC(CO)C(O)C(OC4OC(CO)C(O)C(O)C4N)C3N)C2O)C(N)CC1O (stereo not drawn) [Compound 3d, 5-Amino-6-{3-amino-2-[4,6-diamino-3-(3-amino-6-aminomethyl-5-hydroxy-tetrahydro-pyran-2-yloxy)-2-hydroxy-cyclohexyloxy]-5-hydroxy-6-hydroxymethyl-tetrahydro-pyran-4-yloxy}-2-hydroxymethyl-tetrahydro-pyran-3,4-diol] | – | – | – | – | – | – | – | 64 µg/mL (≈ 102 µM) | 16 µg/mL (≈ 25.5 µM) | 32 µg/mL (≈ 50.9 µM) | > 64 µg/mL | 16 µg/mL (≈ 25.5 µM) | > 64 µg/mL | 32 µg/mL (≈ 50.9 µM)
8 | NC[C@H]1O[C@H](O[C@H]2[C@H](O)[C@@H](O[C@H]3O[C@H](CNC4CC4)[C@@H](O)[C@H](N)[C@H]3O)[C@H](N)C[C@@H]2N)[C@H](N)C[C@@H]1O [Compound 9a] | – | – | – | – | – | – | – | 64 µg/mL (≈ 126 µM) | 32 µg/mL (≈ 63.2 µM) | 32 µg/mL (≈ 63.2 µM) | > 64 µg/mL | 8 µg/mL (≈ 15.8 µM) | 8 µg/mL (≈ 15.8 µM) | 32 µg/mL (≈ 63.2 µM)
9 | NC[C@H]1O[C@H](O[C@H]2[C@H](OCC(O)CNCCCCNCC(O)CO[C@@H]3[C@@H](O)[C@H](N)C[C@H](N)[C@H]3O[C@H]3O[C@H](CN)[C@@H](O)C[C@H]3N)[C@@H](O)[C@H](N)C[C@@H]2N)[C@H](N)C[C@@H]1O (stereo partly drawn) [Compound 27a] | – | – | – | – | – | – | – | 4 µg/mL (≈ 4.92 µM) | 8 µg/mL (≈ 9.84 µM) | 4 µg/mL (≈ 4.92 µM) | 32 µg/mL (≈ 39.4 µM) | 2 µg/mL (≈ 2.46 µM) | 16 µg/mL (≈ 19.7 µM) | 16 µg/mL (≈ 19.7 µM)
10 | NC[C@H]1O[C@H](O[C@H]2[C@H](O)[C@@H](OCC(O)CNCCCCNCC(O)CO[C@@H]3[C@@H](O)[C@H](O[C@H]4O[C@H](CN)[C@@H](O)C[C@H]4N)[C@@H](N)C[C@H]3N)[C@H](N)C[C@@H]2N)[C@H](N)C[C@@H]1O (stereo partly drawn) [Compound 13a] | – | – | – | – | – | – | – | 2 µg/mL (≈ 2.46 µM) | 4 µg/mL (≈ 4.92 µM) | 2 µg/mL (≈ 2.46 µM) | 32 µg/mL (≈ 39.4 µM) | 0.5 µg/mL (≈ 0.615 µM) | 16 µg/mL (≈ 19.7 µM) | 4 µg/mL (≈ 4.92 µM)
11 | NC[C@H]1O[C@H](O[C@H]2[C@H](O)[C@@H](O[C@H]3O[C@H](CO)[C@@H](O)[C@H](N)[C@H]3O)[C@H](N)C[C@@H]2N)[C@H](N)C[C@@H]1O [Tobramycin, reference compound] | – | – | – | – | – | – | – | 0.5 µg/mL (≈ 1.07 µM) | 0.5 µg/mL (≈ 1.07 µM) | 0.25 µg/mL (≈ 0.535 µM) | 16 µg/mL (≈ 34.2 µM) | 0.5 µg/mL (≈ 1.07 µM) | > 64 µg/mL | 1 µg/mL (≈ 2.14 µM)
12 | NCCCCNCC(O)CO[C@@H]1[C@@H](O)[C@H](O[C@H]2O[C@H](CN)[C@@H](O)C[C@H]2N)[C@@H](N)C[C@H]1N (stereo partly drawn) [Compound 14a] | – | – | – | – | – | – | – | 32 µg/mL (≈ 71 µM) | 16 µg/mL (≈ 35.5 µM) | 16 µg/mL (≈ 35.5 µM) | > 64 µg/mL | 8 µg/mL (≈ 17.8 µM) | > 64 µg/mL | 16 µg/mL (≈ 35.5 µM)
